Residues, ends and D or L forms follow the SMILES beside them.
Columns and labels:
[1] = system: rats with alloxan diabetes; assay: Insulin effect on blood glucose level in alloxan diabetes rats after tetrapeptide course (Example 7); assay type: in vivo, rat
Description: The study was conducted on 13 male rats, enrolled in the previous trial (treatment variant—28 days after completion of Lys-Glu-Asp-Trp-NH2 [SEQ ID NO:1] tetrapeptide administration). 8 healthy rats of the similar body weight constituted a separate group. All the animals were administered intravenously with insulin (0.3 units) and glucose concentration in their blood was estimated hereafter.

[2] = system: rats with alloxan diabetes; assay: Tetrapeptide in different doses on the course of alloxan diabetes in rats (Example 4); assay type: in vivo, rat; conditions: for increase in the blood glucose level as compared to the controls: dose of 1 μg; for decrease of glucose level: dose of 10 μg
Description: The study was performed on 23 white mongrel male rats weighing on average […]. All the animals were subject to single intravenous administration of 1 ml of alloxan (“Spofa”) solution in dose of […].
Then the animals were divided at random into 3 groups. Control animals were intraperitoneally administered with 0.3 ml of 0.9% NaCl solution once a day. Rats of the second and third group were administered with tetrapeptide Lys-Glu-Asp-Trp-NH2 [SEQ ID NO:1] in dose of 1 μg (in 0.1 ml of 0.9% NaCl solution) and 10 μg (in 1.0 ml of 0.9% NaCl solution) per rat during 7 days.

[3] = system: rats with alloxan diabetes; assay: Course of alloxan diabetes in rats, prophylaxis and treatment variant (Example 3); assay type: in vivo, rat
Description: The experiment was carried out on 15 white mongrel male rats with the average body weight 375±35 g. The animals were divided randomly into 2 groups. Control animals were administered once a day intravenously with 0.3 ml of 0.9% NaCl solution, while the main group animals were administered with Lys-Glu-Asp-Trp-NH2 [SEQ ID NO:1] tetrapeptide in dose of 3 μg (in 0.3 ml of 0.9% NaCl solution) per rat during 7 days. After that all the animals were subject to single intravenous administration of 1 ml of alloxan solution (“Spofa”) in dose 35 mg/kg. Lys-Glu-Asp-Trp-NH2 [SEQ ID NO:1] tetrapeptide had been administered during 3 days following alloxan administration. After that […] were subject to the second Lys-Glu-Asp-Trp-NH2 [SEQ ID NO:1] tetrapeptide course from 18 day till day 28 (total 11 days) in the same dose.

[4] = system: patients with diabetes mellitus; assay: Clinical application in patients with diabetes mellitus (Example 8); assay type: in vivo, human; conditions: for blood glucose level on an empty stomach: 10 μg i.m. 10 days
Description: The investigation was carried out in 36 patients aged from 16 to 83 years (7 men, 29 women). In 23 patients there was diagnosed type 1 diabetes, in 13 patients—type 2 diabetes. The disease duration varied from 1 year to 30 years. 32 patients received insulin. The majority of the patients suffering diabetes mellitus entered the hospital decompensated. Blood glucose level in these patients on an empty stomach oscillated from […]; the glycosylated haemoglobin—from 7.8 to 12.7%. All the patients were prescribed a rigid diet. All the patients were stratified randomly into 2 groups, with respect to age, sex, duration and stage of the disease (Table 7). Alongside with standard method of treatment 16 patients were prescribed Lys-Glu-Asp-Trp-NH2 [SEQ ID NO:1] tetrapeptide in dose of 10 μg (in 1 ml of 0.9% NaCl solution) intramuscularly once a day for 10 days. 4 patients suffering type 2 diabetes mellitus were prescribed together with standard treatment course Lys-Glu-Asp-Trp-NH2 [SEQ ID NO:1] tetrapeptide in dose of 100 μg (1 tablet) twice a day before meals during 10 days. Patients of the control group were administered with 1 ml of 0.9% of NaCl solution as a placebo following the same scheme.

[5] = Toxicity (experimentally proved)
[6] = system: rats with alloxan diabetes; assay: Glucose tolerance test (sugar curve) in alloxan diabetes rats (Example 6); assay type: in vivo, rat; conditions: for glucose concentration in blood, glucose tolerance test: in mg/dL
Description: The study was conducted on 13 male rats, enrolled in the previous tests (treatment variants—44 days after completion of tetrapeptide Lys-Glu-Asp-Trp-NH2 [SEQ ID NO:1] administration). 7 healthy rats with the same body weight constituted a separate group. All the animals were administered intravenously with 1 ml of 2% glucose solution, after that glucose concentration in their blood was estimated.

[7] = of 16 insulin-treated patients, 10 μg i.m. once a day for 10 days
[8] = tablets, patients treated with oral anti-diabetic medicine
[9] = 30 min after glucose administration
[10] = 60 min after glucose administration
[11] = 120 min after glucose administration

With `NCCCC[C@H](N)C(=O)N[C@@H](CCC(=O)O)C(=O)N[C@@H](CC(=O)O)C(=O)N[C@@H](Cc1c[nH]c2ccccc12)C(N)=O` [Lys-Glu-Asp-Trp-NH2, lysyl-glutamyl-aspartyl-tryptophane amid] (H-KEDW-NH2) the “Decrease in glucose content with respect to initial level” value ([1]; 30 minutes after insulin administration) was 44.2%, the “Glucose Concentration in blood” value ([1]; 30 minutes after insulin administration (0.3 units i.v.)) was 123.6 ± 8.3 mg % and the “Glucose Concentration in blood” value ([1]; initial level, 28 days after course completion) was 221.5 ± 11.2 mg %. The “decrease of the glucose level after insulin administration as compared to the control group” value ([1]; rat, in vivo) was “two-fold”, the “Glucose Concentration in blood” value ([2]; 1 mkg group, 7 days after alloxan administration) was 245.6 ± 12.3 mg % and the “Glucose Concentration in blood” value ([2]; 1 mkg group, 14 days after alloxan administration) was 261.7 ± 12.3 mg %. For the same molecule, the “Glucose Concentration in blood” value ([2]; 1 mkg group, initial level) was 80.6 ± 2.8 mg %, the “Glucose Concentration in blood” value ([2]; 1 mkg per rat, 7 days, 1 day after tetrapeptide administration) was 228.3 ± 10.7 mg % and the “Glucose Concentration in blood” value ([2]; 1 mkg per rat, 4 days after tetrapeptide administration) was 244.4 ± 12.2 mg %. The “Glucose Concentration in blood” value ([2]; 1 mkg per rat, 7 days after tetrapeptide administration) was 269.4 ± 8.6 mg %, the “Glucose Concentration in blood” value ([2]; 1 mkg per rat, 14 days after tetrapeptide administration) was 268.8 ± 12.4 mg % and the “Glucose Concentration in blood” value ([2]; 1 mkg per rat, 21 days after tetrapeptide administration) was 272.5 ± 9.9 mg %. The “Glucose Concentration in blood” value ([2]; 10 mkg group, 7 days after alloxan administration) was 247.2 ± 14.0 mg %, the “Glucose Concentration in blood” value ([2]; 10 mkg group, 14 days after alloxan administration) was 252.2 ± 7.9 mg % and the “Glucose Concentration in blood” value ([2]; 10 mkg group, initial level) was 83.9 ± 3.4 mg %. The “Glucose Concentration in blood” value ([2]; 10 mkg per rat, 7 days, 1 day after tetrapeptide administration) was 193.3 ± 6.7 mg %, the “Glucose Concentration in blood” value ([2]; 10 mkg per rat, 4 days after tetrapeptide administration) was 212.2 ± 7.3 mg % and the “Glucose Concentration in blood” value ([2]; 10 mkg per rat, 7 days after tetrapeptide administration) was 205.6 ± 8.4 mg %. For the same molecule, the “Glucose Concentration in blood” value ([2]; 10 mkg per rat, 14 days after tetrapeptide administration) was 240.0 ± 7.9 mg %, the “Glucose Concentration in blood” value ([2]; 10 mkg per rat, 21 days after tetrapeptide administration) was 248.3 ± 13.5 mg % and the “increase in the blood glucose level as compared to the controls” value ([2]; 1st day after completion of the course) was 17.3%. For the same molecule, the “increase in the blood glucose level as compared to the controls” value ([2]; 4th day after completion of the course) was 12.3%, the “decrease of glucose level” value ([2]; day 1) was 30% and the “decrease of glucose level” value ([2]; day 4) was 23.8%. The “decrease of glucose level” value ([2]; day 7) was 26%, the “decrease of glucose level” value ([2]; day 17) was 12.7% and the survived animals ([3]; 40th day after alloxan administration (control 57.1%)) was 75%. For the same molecule, the “Glucose Concentration in blood” value ([3]; 5 days after alloxan administration) was 247.3 ± 17.2 mg %, the “Glucose Concentration in blood” value ([3]; 7 days from the onset of tetrapeptide administration (1 course, 3 μg per rat), healthy rats before alloxan) was 94.0 ± 0.8 mg % and the “Glucose Concentration in blood” value ([3]; 14 days after alloxan administration) was 261.5 ± 39.5 mg %. The “Glucose Concentration in blood” value ([3]; 18 days after alloxan administration (start of 2nd course)) was 159.0 ± 32.6 mg %, the “Glucose Concentration in blood” value ([3]; 28 days after alloxan administration (end of 2nd course)) was 77.3 ± 1.3 mg % and the “Glucose Concentration in blood” value ([3]; 33 days after alloxan administration) was 90.7 ± 5.2 mg %. For the same molecule, the “Glucose Concentration in blood” value ([3]; 40 days after alloxan administration) was 107.7 ± 6.4 mg %, the “effect on blood glucose level” value ([3]; administration to healthy animals) was “did not lead to the decrease of blood glucose level” and the “decrease of blood glucose level as compared to the controls” value ([3]; after one course) was 22-30%. The blood glucose level ([3]; after the second course, 28th, 33rd, 40th day) was “complete normalisation of the blood glucose level”, the “rats with severe form of diabetes mellitus” value ([3]; control: 5 rats out of 7) was 2 rats out of 8 and the “Glucose Concentration in blood” value ([3]; initial level, before peptide) was 76.8 ± 1.1 mg %. For the same molecule, the “decrease of daily insulin dose as compared to the initial level” value ([4]; Case No. 1) was 26 units, the coagulogram indices ([4]; Case No. 1, at discharge) was “pronounced improvement” and the “Daily dose of insulin” value ([4]; Case No. 1, at discharge, on admission 82 units) was 56 units. The blood glucose level on an empty stomach ([4]; Case No. 1, type 2 diabetes, discharge on the 18th day, on admission 10 μmol/l) was 5.9 mM, the “decrease of daily insulin dose as compared to the initial level” value ([4]; Case No. 2) was 8 units and the “Daily norm of insulin” value ([4]; Case No. 2, at discharge, on admission 40 units) was 32 units. The blood glucose level on an empty stomach ([4]; Case No. 2, type 1 diabetes, discharge on the 15th day, on admission 17.8 μmol/l) was 3.4 mM, the “reduction of the dose of diabeton” value ([4]; Case No. 3) was “two-fold” and the blood glucose level ([4]; Case No. 3, after the completion of the treatment course) was “remained within the norm”. For the same molecule, the glucose level on an empty stomach ([4]; Case No. 3, type 2 diabetes, second day, 100 μg tablet twice a day with 2 diabeton tablets, on admission 11 μmol/l) was 6 mM, the “patients of the main group with decrease of insulin dose” value ([4]; none in control group) was 50% and the “Decreased insulin dose necessary to achieve compensation, number of patients” value [4, 7] was 8. The “Increased insulin dose necessary to achieve compensation, number of patients” value [4, 7] was 2, the “The same insulin dose necessary to achieve compensation, number of patients” value [4, 7] was 6 and the “reduction of the insulin daily dose” value ([4]; on average, in 8 patients out of 16) was 8 units. The “reduction of the dose of insulin” value ([4]; patients who received tetrapeptide in tablets daily) was 25 units, the compensation [4, 8] was “full compensation” and the “reduction of the dose of oral anti-diabetic preparations” value [4, 8] was “two-fold”. The “insulin dose increase to achieve compensation” value ([4]; the 1st patient) was 4 units, the “insulin dose increase to achieve compensation” value ([4]; the 2nd patient) was 14 units and the toxicity [5] was “non-toxic”. For the same molecule, the “glucose concentration compared to the initial level (100%)” value (“glucose concentration … (100%)” below) ([6]; 5 min after glucose administration) was 142.9%, the “glucose concentration in blood, glucose tolerance test” value ([6]; 5 min after glucose administration (1 ml of 2% i.v.)) was 301.2 ± 10.5 and the “glucose concentration … (100%)” value [6, 9] was 97.3%. The “glucose concentration in blood, glucose tolerance test” value [6, 9] was 205.1 ± 11.8, the “glucose concentration … (100%)” value [6, 10] was 95.6% and the “glucose concentration in blood, glucose tolerance test” value [6, 10] was 201.5 ± 13.2. The “glucose concentration … (100%)” value [6, 11] was 77.9%, the “glucose concentration in blood, glucose tolerance test” value [6, 11] was 164.2 ± 12.8 and the “glucose concentration in blood, glucose tolerance test” value ([6]; initial level, 44 days after course completion) was 210.8 ± 9.3.

From patent publication US7491703B2, “Tetrapeptide regulating blood glucose level in diabetes mellitus” (“Access Bioscience” CJSC, priority 2003, dated 2009)
